Assay results published in patent publication EP2408450B1, “ALPHA-(N-SULFONAMIDO)ACETAMIDE COMPOUND AS AN INHIBITOR OF BETA AMYLOID PEPTIDE PRODUCTION” (Bristol-Myers Squibb Company, priority 2009, dated 2010).
Read-outs that look alike come from different tables or passages of the source.

Key:
[1] = Compound plasma levels / AUC in rat studies; assay type: in vivo; conditions: for concentration at 5 h: female, Sprague-Dawley, rat, plasma, oral
Experimental: All procedures were done in concordance with ACUC guidelines. […] Plasma was obtained after centrifugation. […] CSF samples were centrifuged to remove cells or debris prior to dilution at 1:2 in 4% BSA and frozen for subsequent analysis.
Animals were euthanized 12 or 24 hours after the third dose or 5 hours after the fourth dose. […] Table 2: Summary of Results from 4-day Rat Studies

[2] = molecular target: presenilin target site of the γ-secretase complex; assay: Presenilin binding assay (radioligand displacement, THP-1 membranes); conditions: mean ± SD, n = 8
Experimental: Radioligand displacement assays with [^3H] (R)-4-((N-(1-amino-4-methyl-1-oxopentan-2-yl)-4-chlorophenylsulfonamido)methyl)-N-(2-methoxyethyl)benzamide were carried out using a method previously described for [^3H] (2R,3S)-2-isobutyl-N1-((S)-2-oxo-1-(3-phenoxybenzyl)azepan-3-yl)-3-propylsuccinamide (RE987, compound A [Seiffert, D. et al., "Presenilin-1 and -2 are molecular targets for γ-secretase inhibitors", J. Biol. Chem., 275(44):34086-34091 (2000)]). Several experiments were performed to confirm that [^3H] (R)-4-((N-(1-amino-4-methyl-1-oxopentan-2-yl)-4-chlorophenylsulfonamido)methyl)-N-(2-methoxyethyl)benzamide bound to γ-secretase. First, the specific binding of [^3H] […] (R)-4-((N-(1-amino-4-methyl-1-oxopentan-2-yl)-4-chlorophenylsulfonamido)methyl)-N-(2-methoxyethyl)benzamide binding to THP-1 membranes correlated well with γ-secretase potency both as measured using previous radioligand binding assays and inhibition of Aβ formation in cultured cells.
THP-1 cells were grown in Spinner cultures in RPMI 1640 containing L-glutamine (Life Technologies Inc.) and 10 µM β-mercaptoethanol to a cell density of 5 x 10^5/mL. […] Filters were washed three times with 0.3 mL per well of phosphate buffered saline pH 7.0 at 4°C and radioactivity was measured using a Wallac 1450 Microbeta liquid scintillation counter (PerkinElmer, Boston, MA). […]

[3] = tested on: mouse Notch1-ΔE; assay: Inhibition of Notch1-ΔE signaling in Hela cells (CBF1-luciferase reporter); conditions: read-out: IC50 for inhibition of Notch1-ΔE signaling
Experimental: The mouse Notch1-ΔE construct contains the mouse Notch1 signal sequence and the M1727V mutation within the transmembrane domain to suppress internal translation initiation.
Hela cells were maintained in DMEM (GibcoBRL) containing 10% FBS (GibcoBRL), Penicillin/Streptomycin (GibcoBRL) and 2 mM L-glutamine (GibcoBRL). Cells were transiently transfected using TransIT-HelaMONSTER (Mirus) according to the manufacturer's directions. […] The CBF1-luciferase reporter construct consists of 4X copies of the CBF1 binding element upstream of the SV40 promoter (pGL3-Promoter, Promega). […] DNA stocks were diluted in TE buffer (10 mM Tris, 1 mM EDTA, pH 8.0) for transfection. […] Test compounds were initially diluted in a 96 well polypropylene plate in 100% DMSO. […] Diluted compound solutions (10 µL) were added to the cell plate yielding a final 0.1 % DMSO concentration. Cell plates containing compound were incubated overnight at 37°C. Following this overnight incubation, media was gently removed and 25 µL of phosphate buffered saline (with calcium and magnesium) was added to each well. Luc-Screen (Applied Biosystems) reagents A and B were mixed in equal proportions and 50 µL of the mixture was added to each well. The plate was incubated at room temperature for 10 minutes before black backing was attached to the bottom of the plate and the signal was read on a TopCount (Packard). […]

[4] = Metabolic stability in liver microsomes (rat); assay type: in vitro ADME
Experimental: (§1) Mouse, rat, dog, human, and cynomolgus monkey liver microsomes were obtained from BD Gentest (Woburn, MA). The lot numbers were 13 (mouse), 8 (rat), 8 (dog), 19 and 26 (human), and 3 (cynomolgus monkey). […] The reaction, conducted in triplicate, was initiated by the addition of NADPH followed by incubation at 37°C for 50 minutes. Aliquots of samples (0.25 mL) were taken at 0, 5, 10, 20, 30, 40 and 50 minutes and the reaction was quenched by the addition of 3 volumes of acetonitrile. […] The reaction, conducted in triplicate, was initiated by the addition of NADPH followed by incubation at 37 °C for 50 minutes. Aliquots of samples (0.25 mL) were taken at 0, 5, 10, 20, 30, 40 and 50 minutes and the reaction was quenched by the addition of 3 volumes of acetonitrile. […] The reaction, conducted in duplicate, was initiated by the addition of NADPH followed by incubation at 37°C for 40 minutes. Aliquots of samples (0.25 mL) were taken at 0, 5, 10, 15, 20, 30 and 40 minutes and the reaction was quenched by the addition of 3 volumes of acetonitrile. For all studies, samples were analyzed immediately by an LC/MS method.

[5] = tested on: Aβ42; assay: Inhibition of Aβ42 formation in cultured H4 APP751 SWE cells; assay type: cell-based; conditions: H4-8Sw cells, mean ± SD, n = 45
Experimental: Cells were maintained in log phase through twice weekly passage at a 1:20 dilution. […] Following incubation for 19 hours in 5% CO2 at 37°C, plates were briefly centrifuged (1000 rpm, 5 min). […] Antibody cocktails were freshly prepared by dilution into 40 mM Tris-HCl (pH 7.4) with 0.2% BSA and added to assay plates. […] Assay plates containing antibodies were sealed with aluminum foil and incubated overnight at 4°C. Signal was determined using a Viewlux counter (Perkin Elmer) and IC50 values determined using curve fitting in CurveMaster (Excel Fit based).

[6] = Metabolic stability in liver microsomes (cynomolgus monkey); assay type: in vitro ADME
Experimental: as §1

NC(=O)[C@@H](CCC(F)(F)F)N(Cc1ccc(-c2ncon2)cc1F)S(=O)(=O)c1ccc(Cl)cc1 [(2R)-2-[[(4-chlorophenyl)sulfonyl][[2-fluoro-4-(1,2,4-oxadiazol-3-yl)phenyl]methyl]amino]-5,5,5-trifluoropentanamide]
concentration at 5 h ([1]; 30 mg/kg/day, Rat Study No. 3, 30 mg/kg/day, group terminated Day 4, read-out: Plasma Conc. 5hr post dose Day 1): 5.9 µM | concentration at 5 h ([1]; 30 mg/kg/day, Rat Study No. 3, 30 mg/kg/day, group terminated Day 4, read-out: Plasma Conc. 5hr post dose Day 4): 5.6 µM | concentration at 5 h ([1]; 30 mg/kg/day, Rat Study No. 3, 30 mg/kg/day, group terminated Day 7, read-out: Plasma Conc. 5hr post dose Day 1): 7.2 µM | concentration at 5 h ([1]; 30 mg/kg/day, Rat Study No. 3, 30 mg/kg/day, group terminated Day 7, read-out: Plasma Conc. 5hr post dose Day 7): 6.2 µM | concentration at 5 h ([1]; 300 mg/kg/day, Rat Study No. 3, 300 mg/kg/day, group terminated Day 4, read-out: Plasma Conc. 5hr post dose Day 1): 12 µM | concentration at 5 h ([1]; 300 mg/kg/day, Rat Study No. 3, 300 mg/kg/day, group terminated Day 4, read-out: Plasma Conc. 5hr post dose Day 4): 10 µM | concentration at 5 h ([1]; 300 mg/kg/day, Rat Study No. 3, 300 mg/kg/day, group terminated Day 7, read-out: Plasma Conc. 5hr post dose Day 1): 14 µM | concentration at 5 h ([1]; 300 mg/kg/day, Rat Study No. 3, 300 mg/kg/day, group terminated Day 7, read-out: Plasma Conc. 5hr post dose Day 7): 11 µM | compound plasma levels 5 hours after the first and fourth dose ([1]; rats, 30 or 300 mg/kg/day): similar | Ki [2]: 0.48 nM | IC50 [3]: 58 ± 23 nM | rate of in vitro metabolism ([4]; rat microsomes, NADPH-fortified, 1 µM): 630 pmol/min/mg protein | predicted in vivo (serum) clearance ([4]; rat, scaled from liver microsome rate): ~52 mL/min/kg | IC50 [5]: 0.27 ± 0.12 nM | rate of in vitro metabolism ([6]; cynomolgus monkey microsomes, NADPH-fortified, 1 µM): 495 pmol/min/mg protein | predicted in vivo (serum) clearance ([6]; cynomolgus monkey, scaled from liver microsome rate): ~39 mL/min/kg
